According to patent US10226409B2, “Pyruvate and related α-keto carboxylates as novel adjuvants in the treatment of post tooth whitening sensitivity and the tissue protective effect of pyruvate on the oral soft tissue” (priority 2016, dated 2019):

Columns and labels:
[1] = In-office laser tooth whitening, desensitizer applied post treatment: tooth sensitivity; type: in vivo, human; settings: for duration of tooth sensitivity: confirmed by follow up phone calls; for subjects experiencing tooth sensitivity after application of the desensitizer: 5 subjects per group
Excerpt: In-office laser tooth whitening procedure using Biolase EZ lase, 7W diode laser, and the LaserWhite *20 whitening gel kit.
A total of 15 candidates were selected and screened (for the presence of active decay, faulty restorations, cervical abrasion and attrition, enamel cracks) for the whitening procedure.
The arch has been divided in 4 quadrants, K1 (upper right), K2 (upper left), K3 (lower left), K4 (lower right).
The amount of 400 Jules has been applied per quadrant per application, in two separate applications. (total of 800 Jules per quadrant).
The candidates were assigned to 3 groups.
Group 1 is considered the control (C1), receiving desensitizer (post treatment) containing potassium nitrate.
Group 2, a second control group (C2), received as desensitizer (post treatment) stannous fluoride.
Group 3 (C3) received as desensitizer sodium pyruvate 99% in crystalline form. (applied over the gingival, gingival margin and DEJ).

[2] = intracoronary; cited from earlier work
[3] = cardioplegia; cited from earlier work
oxidative stress = settings: cited from earlier work
[4] = tested on: isolated liver mitochondria; settings: 1 mM pyruvate; cited from earlier work
[5] = tested on: human and bovine endothelial cells; settings: cited from earlier work
[6] = tested on: mammalian cellular systems; settings: applied exogenously in concentrations up to about 10 mM, short term studies; cited from earlier work
isolated cardiomyocytes = settings: 1-10 millimolar; cited from earlier work
[7] = cited from earlier work
[8] = Gingival lesions after tooth whitening, treated only with sodium pyruvate; type: in vivo, human
Excerpt: In addition, overall 6 patients presented with gingival lesions, manifested by burning sensation on the gingival margin, and visually expressed by white areas on the gingival margin.

[9] = R. Bünger et al., unpublished observations; cited from earlier work

O=[N+]([O-])[O-].[K+] [potassium nitrate]
duration of tooth sensitivity [1]: up to 24 hours
subjects experiencing tooth sensitivity after application of the desensitizer ([1]; end of whitening procedure): 3 out of 5

CC(=O)C(=O)O [pyruvate]
efficacy [2]: beneficial efficacy
toxicity [2]: no obvious toxicity
mortality and morbidity [3]: reduced mortality and morbidity
pyruvate level of optimum efficacy (oxidative stress): 2 to 5 mM
pyruvate level required for beneficial effects (oxidative stress): ≥ 0.5 mM
dissociation of cytochrome C [4]: prevented the dissociation of cytochrome C
expression of antiapoptotic bc1-2 [4]: enhanced expression of antiapoptotic bc1-2
mitochondrial respiration [4]: stabilized respiration
bc1-2/bax ratio ([5]; 30 min pulse of 0.5 mM H2O2): increasing the bc1-2/bax ratio
cellular glutathione pool ([5]; 30 min pulse of 0.5 mM H2O2): stabilizing the cellular glutathione pool
cellular viability and survival ([5]; 30 min pulse of 0.5 mM H2O2): dose-dependently enhanced cellular viability and survival
phosphorylated p38 mitogen activated kinase ([5]; H2O2-treated endothelial cells): prevented the accumulation of phosphorylated p38 mitogen activated kinase
phosphorylation of ERK1/2 ([5]; H2O2-treated endothelial cells): transiently increased phosphorylation of ERK1/2
cytotoxicity [6]: virtually no or little cytotoxicity
calcium transients (isolated cardiomyocytes): improves the calcium transients
cytotoxicity (isolated cardiomyocytes): without apparent cytotoxicity
mitochondrial stability and mitochondrial Δϕ (isolated cardiomyocytes): increases mitochondrial stability and mitochondrial Δϕ
rate constant of scavenging of peroxynitrite ([7]; pH 7.4, 37° C.): 88 to 100 mol⁻¹ s⁻¹
reaction with peroxynitrite faster than with H2O2 ([7]; physiological pyruvate anion): about 40 times
speed of reaction with peroxynitrite relative to that with H2O2 ([7]; pyruvate decarboxylates to acetate): about one order of magnitude faster

[13CH3][13C](=O)C(=O)[O-].[Na+] [sodium pyruvate, α-Ketopropionic acid-2,3-13C2 sodium salt]
burning sensation on the gingival margin ([8]; 6 patients with gingival lesions, treated only with sodium pyruvate): immediate relieve of the burning sensation
visual inspection of the gingiva ([8]; previously discolored (white) site on the gingival margin): normal appearance of the gingiva
duration of tooth sensitivity [1]: ≤ 24 h
subjects experiencing tooth sensitivity after application of the desensitizer ([1]; end of whitening procedure): 1 of 5
stability [9]: relative stability
water solubility [9]: high water solubility

[F][Sn][F] [stannous fluoride]
duration of tooth sensitivity [1]: over 24 hours
members of the group experiencing tooth sensitivity ([1]; end of whitening procedure): 100%
